21 compounds from PubChem BioAssay (NCI) can be followed below.

Assay in all cases: NCI anticancer screen, dose series, 48 h
For assay [1], the system named is HS 578T breast.
Assay [2] has as its system UACC-62 melanoma.
The test system of assay [3] is SF-268 CNS.
Assay [4] concerns UACC-257 melanoma.
Assay [5] relates to HCT-15 colon.
The subject of assay [6] is SK-MEL-5 melanoma.
Assay [7] deals with NCI-H522 lung.
Assay [8] deals with K-562 leukemia.
The subject of assay [9] is U251 CNS.
Assay [10] deals with CAKI-1 renal.

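All cell lines were grown in 96-well plates and treated with compound for 48 hours. GI50: concentration for 50% inhibition of growth. The concentration for full growth arrest is given as TGI.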 Some results are limits rather than exact numbers.

In the case of `C=C1C(=O)O[C@H]2[C@H]1CC/C(COC(=O)NCc1c[nH]c3ccccc13)=C\CC[C@@]1(C)O[C@@H]21`, the GI50 is 10.3 µM in [1]; 1.72 µM in [2]; 10.4 µM in assay [3]; 4.25 µM in assay [4]; 1.67 µM in assay [5]; 12.1 µM in [6]. The GI50 in assay [7] was 1.23 µM; in assay [8] it was 1.82 µM; in [9], 11.1 µM. Besides, the TGI in assay [1] stood at 43.9 µM; in [2], 3.95 µM; in assay [3], 22.6 µM; in [4], 15.9 µM; in assay [5] it was 4.19 µM; in assay [6], 25 µM. Also, the results for the TGI in [7], in assay [8] and in assay [9] were 2.58 µM, 12.6 µM and 23.1 µM, respectively.
As to `NC(=NCc1ccccc1)C(N=Nc1ccccc1)C(=O)NCc1ccccc1` (stereo not given), the GI50 in [10] is 3.44 µM; in assay [1] it was 2.92 µM; in [2], 16.5 µM; in assay [3] it was 2.53 µM; in assay [4], 26.8 µM; in assay [5], 8.19 µM. In addition, the GI50 is 23.4 µM in [6] and 5.75 µM in assay [9]. Besides, the TGI in [10] amounted to 15.2 µM; in [1], 13.9 µM; in [2], 37.6 µM; in [3] it was 6.44 µM; in assay [4], 69.5 µM; in assay [5] it was 67.3 µM. In addition, the TGI was 67.3 µM in assay [6] and 25.9 µM in [9].
For the compound `Nc1c(C(=O)Nc2ccccc2)sc2nc3c(cc12)CCCCC3`, the GI50 in assay [10] was 0.478 µM; in assay [1] it was 0.669 µM; in assay [2] it was 0.41 µM; in assay [3] it was 1.1 µM; in assay [4], 1.46 µM; in [5] it was 0.421 µM. The values for the GI50 in assay [6], in assay [7] and in assay [9] were 0.353 µM, 4.9 µM and 0.767 µM, respectively. The TGI in assay [10] is > 100 µM; in assay [1], 31.3 µM; in assay [2] it was 19.4 µM; in assay [3] it was 54.4 µM; in assay [4], > 100 µM; in assay [5], > 100 µM. Besides, the TGI in assay [6] was 5.2 µM; in [7], > 100 µM; in assay [9], 19.5 µM.
With `Cc1ccc2oc(=O)cc(/C(=C3/C=CC=N3)c3ccc[nH]3)c2c1`, the GI50 in assay [10] was 0.53 µM; in [1], 0.391 µM; in assay [2], 0.373 µM; in [3], 0.526 µM; in [4] it was 0.711 µM; in assay [5] it was 0.298 µM. The values for the GI50 in assay [6], in assay [7] and in assay [9] were 0.356 µM, 1.53 µM and 0.319 µM, respectively. Also, the TGI in assay [10] was determined as 10.6 µM; in assay [1] it was 4.7 µM; in [2] it was 1.98 µM; in assay [3], 6.73 µM; in [4] it was 4.06 µM; in assay [5] it was 10.1 µM. In addition, the TGI in assay [6] is 1.29 µM; in assay [7], 5.22 µM; in assay [9] it was 1.57 µM.
As to `Cc1nc2c(c(N3CCCc4ccccc43)n1)CCC2`, the GI50 in assay [10] is < 0.01 µM; in assay [1], < 0.01 µM; in [2], < 0.01 µM; in assay [3] it was 0.0102 µM; in assay [4], 12.9 µM; in assay [5] it was < 0.01 µM. Further, the GI50 in [6], in assay [8] and in assay [9] was < 0.01 µM throughout. The TGI in assay [10], in assay [1], in assay [2], in [3], in [4] and in assay [5] was > 100 µM throughout. Also, the values for the TGI in assay [6], in [8] and in assay [9] were 0.0233 µM, > 100 µM and > 100 µM, respectively.
Consider `O=C1C(Cl)=C(Nc2ccc(Nc3ccccc3)c(NC3=C(Cl)C(=O)c4ccccc4C3=O)c2)C(=O)c2ccccc21`, for which the GI50 in assay [10] is 5.36 µM; in [1], 1.87 µM; in assay [2], 3.46 µM; in assay [3] it was 3.63 µM; in assay [4], 6.12 µM; in assay [5] it was 3.46 µM. The figures for the GI50 in assay [6] and in assay [9] were 13.1 µM and 2.32 µM, respectively. In addition, the TGI in assay [10] was 29 µM; in assay [1] it was 6.36 µM; in [2], 13.2 µM; in assay [3], 18.8 µM; in [4], 33.7 µM; in assay [5] it was > 100 µM. Besides, the TGI in assay [6] was determined as 32 µM; in [9] it was 7.22 µM.
`CC1(C)S[C@@H]2[C@H](N3C(=O)c4ccccc4C3=O)CN2[C@H]1NC(=O)N[C@@H]1N2C[C@@H](N3C(=O)c4ccccc4C3=O)[C@H]2SC1(C)C`: the TGI in [10] is > 100 µM; in assay [1], > 100 µM; in [2], > 100 µM; in assay [3], 81.3 µM; in [5], > 100 µM; in assay [6] it was > 100 µM. For the same compound, the TGI in [7] is > 100 µM; in assay [8], > 100 µM; in assay [9] it was 58.5 µM.
Regarding `CCN1CCC(Nc2ccnc3cc(Cl)ccc23)CC1`, the GI50 in [10] is 21.5 µM; in assay [1], 17.1 µM; in assay [2], 19.2 µM; in [3], 23.6 µM; in [4], 17 µM; in assay [5] it was 30.1 µM. The GI50 in assay [6] is 16 µM; in assay [8], 4.83 µM; in assay [9], 30.5 µM. Also, the TGI in assay [10] is > 100 µM; in [1], 48.9 µM; in assay [2], 39.2 µM; in [3], > 100 µM; in assay [4], 32.3 µM; in assay [5], > 100 µM. The TGI in assay [6] is 30.2 µM; in [8], > 100 µM; in assay [9], > 100 µM.
With `CC(=O)Nc1cc2cc(N)ccc2oc1=O`, the TGI in assay [10], in assay [1], in assay [3], in assay [4], in [5] and in assay [6] was > 100 µM throughout. Besides, the TGI in assay [7], in assay [8] and in assay [9] was > 100 µM throughout.
Consider `N#Cc1c(NCc2ccccc2)nc(NCc2ccccc2)c(C#N)c1-c1ccc(O)cc1`, for which the GI50 in assay [10] is 10.7 µM; in assay [1] it was 22.9 µM; in [2], 21.5 µM; in assay [3], 27.3 µM; in assay [4], 43.2 µM; in [5], 29.6 µM. Also, the GI50 was 15.3 µM in assay [6], 20.2 µM in [7] and 19.2 µM in assay [9]. In addition, the TGI is 44.8 µM in assay [10]; > 100 µM in assay [1]; > 100 µM in [2]; > 100 µM in assay [3]; > 100 µM in [4]; > 100 µM in assay [5]. The TGI came to 34.3 µM in assay [6], 75.1 µM in [7] and 54.5 µM in [9].
As to `CCOC(=O)C1SC(=Nc2ccc(OC)c(OC)c2)N=C1C` (stereo not given), the TGI was > 100 µM in assay [10]; 67.9 µM in assay [2]; > 100 µM in [3]; > 100 µM in assay [4]; > 100 µM in assay [5]; 37.2 µM in [6]. Further, the TGI in assay [7] is 32.3 µM; in assay [8], > 100 µM; in assay [9] it was > 100 µM.
Turning to `COC(=O)c1cc(C(=O)OC)c(CC(=O)C(=O)NC2C3CC4CC(C3)CC2C4)nc1CC(=O)C(=O)NC1C2CC3CC(C2)CC1C3` (stereo not given), the TGI in assay [10], in [2], in assay [3], in assay [4], in assay [5] and in [6] was > 100 µM in each case. Besides, the TGI in [7], in assay [8] and in [9] was > 100 µM each time.
With `CC1CCN(Cc2ccc(NC(=O)c3cc4ccc5cccnc5c4[nH]3)cc2)CC1`, the GI50 is 6.58 µM in [10]; 4.09 µM in assay [1]; 2.17 µM in assay [2]; 7.07 µM in [3]; 3.07 µM in assay [5]; 2.53 µM in assay [8]. Moreover, in assay [9], the GI50 is 2.8 µM. Further, the TGI in assay [10] worked out at 31 µM; in assay [1] it was 28.3 µM; in [2], 4.54 µM; in assay [3], 40.9 µM; in assay [5], 18.5 µM; in [8], 9.07 µM. The compound also came in with a TGI in assay [9] of 10.3 µM.
Consider `COc1cc(C2CC(c3cccc(Nc4ccnc5cc(Cl)ccc45)c3)=NN2c2ccc(Cl)cc2)cc(OC)c1OC` (stereo not given), for which the GI50 in [10] was 0.693 µM; in [1] it was 2.45 µM; in [2], 0.311 µM; in assay [3], 8.16 µM; in assay [4] it was 3.45 µM; in [5], 1.28 µM. Also, the figures for the GI50 in assay [6], in assay [7] and in assay [8] were 1.37 µM, 1.57 µM and 0.755 µM, respectively. In addition, the TGI in assay [10] is > 100 µM; in [1], 86.8 µM; in [2], 19.9 µM; in assay [3] it was > 100 µM; in [4] it was > 100 µM; in [5] it was > 100 µM. Besides, the results for the TGI in assay [6], in [7] and in [8] were 4.05 µM, 22.8 µM and > 100 µM, respectively.
For `COc1ccc(/C=C2\CN(C(=O)C(Cl)Cl)C/C(=C\c3ccc(OC)cc3)C2=O)cc1`, the GI50 in assay [1] was 2.65 µM; in [3], 2.95 µM; in [5] it was 0.337 µM; in assay [8], 0.343 µM. In addition, the TGI in assay [1] is > 100 µM; in assay [3] it was > 100 µM; in assay [5], 1.52 µM; in [8], > 100 µM.
As to `C=C(CO)CC(O)c1cc(OC)ccc1OC` (stereo not given), the TGI in assay [10], in assay [2], in assay [3], in assay [4], in assay [5] and in assay [6] was > 100 µM in each case. Besides, the TGI in assay [7], in assay [8] and in assay [9] was > 100 µM throughout.
`COC(=O)c1ccccc1N(C(=O)c1ccccc1)c1ccccc1C`: the TGI in [10], in [2], in [3], in assay [4], in assay [5] and in assay [6] was > 100 µM in each case. Moreover, the TGI in assay [7] was 86.1 µM; in [8] it was > 100 µM; in [9], > 100 µM.
On to `COC(=O)N1CC(=O)C(C(=O)NC23CC4CC(CC(C4)C2)C3)C1` (stereo not given), for which the TGI in assay [10], in assay [2], in assay [3], in assay [4], in assay [5] and in assay [6] was > 100 µM in each case. For the same compound, the TGI in assay [7], in assay [8] and in assay [9] was > 100 µM in each case.
As to `O=C(O)C[C@@H](Cl)[C@H](NC(=O)OCc1ccccc1)C(=O)O`, the TGI in [10], in assay [2], in assay [3], in [4], in assay [5] and in assay [6] was > 100 µM throughout. In addition, the TGI in [7], in assay [8] and in assay [9] was > 100 µM in each case.
As for `O=C(O)/C(Cl)=C(\Cl)C(=O)c1ccccc1`, the TGI in [10], in [2], in [3], in assay [4], in assay [5] and in [6] was > 100 µM each time. Also, the TGI in assay [7], in [8] and in assay [9] was > 100 µM in each case.
`O=C1C(=O)N(c2ccc(Cl)cc2)C(=O)C(=O)C1c1nc2ccccc2o1`: the TGI in assay [10], in assay [2], in assay [3], in assay [4], in [5] and in [6] was > 100 µM each time. Also, the TGI in assay [7], in assay [8] and in assay [9] was > 100 µM each time.
